The values below come from patent US20250230155A1 (Vanderbilt University, priority 2021, published 2025).

In the assay the target is T1, human mAChR M4 (Homo sapiens, UniProt P08173).
T1 construct: expressed in transfected cells
T1 sequence (P08173 1-479): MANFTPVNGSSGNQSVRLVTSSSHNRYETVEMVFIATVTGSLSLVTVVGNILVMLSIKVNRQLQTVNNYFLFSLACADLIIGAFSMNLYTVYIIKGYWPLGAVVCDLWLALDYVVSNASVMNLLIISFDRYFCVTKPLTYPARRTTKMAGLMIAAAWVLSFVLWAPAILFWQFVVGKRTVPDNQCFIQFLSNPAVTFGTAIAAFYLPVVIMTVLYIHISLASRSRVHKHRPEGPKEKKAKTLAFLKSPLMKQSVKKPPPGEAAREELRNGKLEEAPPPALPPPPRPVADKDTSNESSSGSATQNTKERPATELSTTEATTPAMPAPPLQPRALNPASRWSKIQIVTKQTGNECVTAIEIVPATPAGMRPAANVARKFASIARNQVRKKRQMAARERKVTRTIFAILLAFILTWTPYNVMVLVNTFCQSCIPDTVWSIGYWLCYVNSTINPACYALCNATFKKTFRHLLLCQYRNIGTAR
Kind of assay: mAChR M4 cell-based functional assay (calcium mobilization, CHO-K1 hM4-Gqi5 cells). As to conditions: for Emax at 30 µM: CHO-K1, % ACh maximum at 30 μM, human M4; for EC50: positive allosteric modulator activity, increase in the EC20 acetylcholine response, CHO-K1 hM4-Gqi5 cells, read-out: Human M4 EC50. An outline of the steps:
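CHO-K1 cells stably expressing human M4 with chimeric Gqi5, loaded with Fluo-4 AM; compounds given as 11-point 1:3 curves and calcium flux read on FDSS at 1 Hz. Acetylcholine EC20 added at 144 s, EC80 at 230 s; agonist, PAM (EC20 potentiation) and antagonist (EC80 inhibition) EC50/Emax from four-parameter fits.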
(A change in cytosolic calcium serves as a functional read-out for many receptors and channels.)

For `Cc1cc(C#N)cnc1N1CCc2ncc(OCCOc3ccc(F)cc3)cc2C1` [Example 428, 6-(3-(2-(4-fluorophenoxy)ethoxy)-7,8-dihydro-1,6-naphthyridin-6(5H)-yl)-5-methylnicotinonitrile], the Emax (as a rule, the greatest response seen or fitted, relative to the assay's reference) at 30 µM turned out to be 59% and the EC50 (in general, the concentration giving half of the maximal effect) is 2350 nM.
For `Cc1c(C#N)nnc(N2CCc3ncc(N4CCOC(c5cccnc5)C4)cc3C2)c1C` (stereo not drawn) [Example 388, 4,5-dimethyl-6-(3-(2-(pyridin-3-yl)morpholino)-7,8-dihydro-1,6-naphthyridin-6(5H)-yl)pyridazine-3-carbonitrile] the same measures were 83% and 1250 nM.
For `Cc1nc(C)c(C)c(N2CCc3ncc(-c4cn(C)nc4C)cc3C2)n1` [compound 201, 3-(1,3-dimethylpyrazol-4-yl)-6-(2,5,6-trimethylpyrimidin-4-yl)-7,8-dihydro-5H-1,6-naphthyridine] the same measures were 77% and 176 nM.
Regarding `Cc1cc(C#N)cnc1N1CCc2ncc(N3CCCn4nc(C5CC5)cc43)cc2C1` [Example 415, 6-(3-(2-cyclopropyl-6,7-dihydropyrazolo[1,5-a]pyrimidin-4(5H)-yl)-7,8-dihydro-1,6-naphthyridin-6(5H)-yl)-5-methylnicotinonitrile], the Emax at 30 µM amounted to 72% and the EC50 is 94 nM.
For `Cc1nc(Cl)c(C)c(N2CCc3nc(C(F)(F)F)ccc3C2)n1` [compound 218, 6-(6-chloro-2,5-dimethylpyrimidin-4-yl)-2-(trifluoromethyl)-5,6,7,8-tetrahydro-1,6-naphthyridine] the same measures were 83% and 759 nM.
For `Cc1cc(C(=O)NCc2ccncc2)cnc1N1CCc2ncccc2C1` [compound 61, 6-(7,8-dihydro-5H-1,6-naphthyridin-6-yl)-5-methyl-N-(4-pyridylmethyl)pyridine-3-carboxamide], in that order: 67% and 1630 nM.
For `Cc1cc(C#N)cnc1N1CCc2ncc(CC(F)(F)F)cc2C1` [Example 423, 5-methyl-6-(3-(2,2,2-trifluoroethyl)-7,8-dihydro-1,6-naphthyridin-6(5H)-yl)nicotinonitrile], in that order: 76% and 229 nM.
For the compound `Cc1ccc(F)c(Oc2cnc3c(c2)CN(c2ncc(C#N)cc2C)CC3)c1` [Example 368, 6-(3-(2-fluoro-5-methylphenoxy)-7,8-dihydro-1,6-naphthyridin-6(5H)-yl)-5-methylnicotinonitrile], the Emax at 30 µM is 94% and the EC50 is 1700 nM.
For `Cc1cc(C(=O)N2CC(C)(F)C2)nnc1N1CCc2ncc(-c3ccnn3C)cc2C1` [Example 564, (3-fluoro-3-methylazetidin-1-yl)(5-methyl-6-(3-(1-methyl-1H-pyrazol-5-yl)-7,8-dihydro-1,6-naphthyridin-6(5H)-yl)pyridazin-3-yl)methanone] the same measures were 72% and 86 nM.
On to `Cc1c(C#N)nnc(N2CCc3ncc(Nc4ccccc4C(F)(F)F)cc3C2)c1C` [compound 43, 4,5-dimethyl-6-[3-[2-(trifluoromethyl)anilino]-7,8-dihydro-5H-1,6-naphthyridin-6-yl]pyridazine-3-carbonitrile], for which the Emax at 30 µM is 71% and the EC50 was determined as 1160 nM.
Take `Cc1c(C#N)nnc(N2CCc3ncc(Cc4ccccc4F)cc3C2)c1C` [Example 369, 6-(3-(2-fluorobenzyl)-7,8-dihydro-1,6-naphthyridin-6(5H)-yl)-4,5-dimethylpyridazine-3-carbonitrile]: the Emax at 30 µM worked out at 63% and the EC50 came out at 424 nM.
For `Cc1cc(C(=O)N2CC(C)(O)C2)nnc1N1CCc2ncc(-n3cccn3)cc2C1` [Example 534, (6-(3-(1H-pyrazol-1-yl)-7,8-dihydro-1,6-naphthyridin-6(5H)-yl)-5-methylpyridazin-3-yl)(3-hydroxy-3-methylazetidin-1-yl)methanone] the same measures were 88% and 322 nM.
For `Cc1nc(Cl)c(C)c(N2CCc3ncc(Nc4cccnc4F)cc3C2)n1` [compound 251, 6-(6-chloro-2,5-dimethylpyrimidin-4-yl)-N-(2-fluoropyridin-3-yl)-5,6,7,8-tetrahydro-1,6-naphthyridin-3-amine], in that order: 93% and 197 nM.
For `Cc1cc(C(=O)NCc2ccc(-n3cccn3)cc2)cnc1N1CCc2ncccc2C1` [compound 67, 6-(7,8-dihydro-5H-1,6-naphthyridin-6-yl)-5-methyl-N-[(4-pyrazol-1-ylphenyl)methyl]pyridine-3-carboxamide] the same measures were 55% and 1940 nM.
On to `Cc1cc(C#N)cnc1N1CCc2ncc(Cc3ccccc3F)cc2C1` [Example 365, 6-(3-(2-fluorobenzyl)-7,8-dihydro-1,6-naphthyridin-6(5H)-yl)-5-methylnicotinonitrile], for which the Emax at 30 µM came to 89% and the EC50 is 358 nM.
For `Cc1cc(C(=O)NCc2ccccn2)cnc1N1CCc2ncc(-c3cn(C)nc3C)cc2C1` [Example 458, 6-(3-(1,3-dimethyl-1H-pyrazol-4-yl)-7,8-dihydro-1,6-naphthyridin-6(5H)-yl)-5-methyl-N-(pyridin-2-ylmethyl)nicotinamide] the same measures were 84% and 562 nM.
Take `Cc1cnccc1Nc1cnc2c(c1)CN(c1ncc(C#N)cc1C)CC2` [Example 620, 5-methyl-6-(3-((3-methylpyridin-4-yl)amino)-7,8-dihydro-1,6-naphthyridin-6(5H)-yl)nicotinonitrile]: the Emax at 30 µM amounted to 96% and the EC50 worked out at 72 nM.
For `Cc1cc(C#N)nnc1N1CCc2ncc(C(F)F)cc2C1` [Example 309, 6-(3-(difluoromethyl)-7,8-dihydro-1,6-naphthyridin-6(5H)-yl)-5-methylpyridazine-3-carbonitrile], the half-maximal effective concentration (EC50) was 770 nM. The Emax (CHO-K1) came to 96%.
Regarding `COCc1nc(Cl)c(C)c(N2CCc3ncc(-c4cn(C)nc4C)cc3C2)n1` [compound 216, 6-(6-chloro-2-(methoxymethyl)-5-methylpyrimidin-4-yl)-3-(1,3-dimethyl-1H-pyrazol-4-yl)-5,6,7,8-tetrahydro-1,6-naphthyridine], the Emax at 30 µM is 94% and the EC50 was 864 nM.
As for `Cc1cc(C(=O)NCc2ccc3c(c2)COC3)cnc1N1CCc2ncccc2C1` [compound 153, N-(1,3-dihydroisobenzofuran-5-ylmethyl)-6-(7,8-dihydro-5H-1,6-naphthyridin-6-yl)-5-methyl-pyridine-3-carboxamide], the Emax at 30 µM was 68% and the 50% effective concentration (EC50) is 3170 nM.
Consider `Cc1cc(C(=O)NC2CCCC2)cnc1N1CCc2ncccc2C1` [compound 65, N-cyclopentyl-6-(7,8-dihydro-5H-1,6-naphthyridin-6-yl)-5-methyl-pyridine-3-carboxamide], for which the Emax at 30 µM is 52% and the EC50 was at least 10000 nM.
For `Cc1nc(Cl)c(C)c(N2CCc3ncc(-c4ccc(F)nc4)cc3C2)n1` [compound 224, 6-(6-chloro-2,5-dimethylpyrimidin-4-yl)-3-(6-fluoropyridin-3-yl)-5,6,7,8-tetrahydro-1,6-naphthyridine] the same measures were 82% and 214 nM.
For `Cc1cc(C(=O)N2CCCC2)nnc1N1CCc2ncc(CC(F)(F)F)cc2C1` [Example 582, (5-methyl-6-(3-(2,2,2-trifluoroethyl)-7,8-dihydro-1,6-naphthyridin-6(5H)-yl)pyridazin-3-yl)(pyrrolidin-1-yl)methanone] the same measures were 76% and 1910 nM.
For `Cc1cc(C(=O)NCc2cncs2)cnc1N1CCc2ncc(Nc3ccnn3C)cc2C1` [Example 449, 5-methyl-6-(3-((1-methyl-1H-pyrazol-5-yl)amino)-7,8-dihydro-1,6-naphthyridin-6(5H)-yl)-N-(thiazol-5-ylmethyl)nicotinamide] the same measures were 105% and 84 nM.
Turning to `Cc1cc(C(=O)N2CC(F)(F)C2)nnc1N1CCc2ncc(-n3cccn3)cc2C1` [Example 533, (6-(3-(1H-pyrazol-1-yl)-7,8-dihydro-1,6-naphthyridin-6(5H)-yl)-5-methylpyridazin-3-yl)(3,3-difluoroazetidin-1-yl)methanone], the Emax at 30 µM amounted to 88% and the EC50 stood at 107 nM.
For `CNC(=O)c1ccc(CNC(=O)c2cnc(N3CCc4ncccc4C3)c(C)c2)cc1` [compound 149, 6-(7,8-dihydro-5H-1,6-naphthyridin-6-yl)-5-methyl-N-[[4-(methylcarbamoyl)phenyl]methyl] pyridine-3-carboxamide] the same measures were 56% and at least 10000 nM.
For `Cc1cc(C#N)nnc1N1CCc2ncc(-c3cnn(C4CC4)c3)cc2C1` [Example 361, 6-(3-(1-cyclopropyl-1H-pyrazol-4-yl)-7,8-dihydro-1,6-naphthyridin-6(5H)-yl)-5-methylpyridazine-3-carbonitrile], in that order: 115% and 786 nM.
